# Key:
# GLP-1R = target: T1, GLP-1R (Homo sapiens, UniProt P43220); assay: EndoC cAMP Accumulation Assay; assay type: cell-based; conditions: EndoC-βH1 human pancreatic β cell line; HTRF cAMP accumulation
# T1 construct: host or cells: EndoC-βH1 human pancreatic beta cell line
# Description: EndoC cAMP Accumulation Assay
# A HTRF cAMP assay (cAMP Gs dynamic kit; CisoBio Cat #62AM4PEJ) was used to identify agonists of GLP-1R in a pancreatic insulinoma cell line (EndoC-⊕H1). […] EndoC-PHlcells have detectable GLP-1R messenger ribonucleic acid (mRNA) as detected by quantitative polymerase chain reaction (qPCR). […] The EndoC-PH1 cell line is a valid model of human beta cells and applicable for screenings to identify novel drug target candidates (Mol. Metab., 2018, 8, 144-157). CisBio HTRF cAMP kits are based on a competitive immunoassay using cryptate-labelled anti-cAMP antibody and d2-labeled cAMP. The detection kit is intended for the direct quantitative determination of cAMP. The specific signal (i.e. energy transfer) is inversely proportional to the concentration of cAMP in the standard or sample. Test compounds (10 mM in DMSO) were diluted into assay buffer (HBSS (Sigma #H8264) supplemented with 25 mM HEPES (Gibco #15630, pH 7.4), 0.1% BSA (Sigma #A3059) and 0.5 mM IBMX (Sigma #I7018) included fresh on the day of the assay) into 96 well U-bottom plates (Greiner #650201). Diluted compounds were transferred to ECHO source polypropylene plates (Labcyte #P-05525) and dose response curves were dispensed acoustically using ECHO 550 into black shallow-well u-bottom 384-well HTRF Assay Plates (Corning 4514).
# Cryovials of EndoC-H1 (supplied at 1×10e^7 cells/vial) were used directly for screening. The cryovials and were removed from N2(l) and thawed rapidly in a 37° C. water bath. The cells were resuspended in assay buffer and centrifuged at 300 g for 5 min. Cells were resuspended in assay buffer at the appropriate concentration, typically at 12e5 cells per mL (3000 cells per well, dependent on cell batch) and 2.5 μL diluted cells were added to all wells of destination plate by Multidrop combi reagent dispenser (Thermofisher). The plates were incubated at rt for 30 min. The assay was stopped by adding 2.5 μL anti-cAMP cryptate solution to all wells and 2.5 μL cAMP-d2 solution (both diluted 1:20 in lysis buffer) to columns 1-22 by Combi drop. A volume of 2.5 μL cAMP-d2 solution was added to wells E23 to P24 and 2.5 μL lysis buffer added to wells A23 to D24 by multichannel pipette. The plates were incubated at rt for 1 h and read on an Envision plate reader using excitation wavelength of 320 mn and emission of 590 nm and 660 nm.
# Raw data from Envision is converted to % DeltaF according to the manufacturer's instructions. Dose response curves are analysed via 4-Parameter Logistical Analysis and assay plate Z′ values obtained. Samples are graphed as percentage (%) activation plots compared to GIP (1-42, Bachem H-5645) with assay window defined by negative control as basal cell cAMP levels and positive control are defined by maximum GIP (82.5 nM) signal. GLP-1 (7-36 amide, Bachem H-6795) dose response curve was included on all plates.
# human GLP-1R receptor = target: T2, human GLP-1R receptor (Homo sapiens, UniProt P43220, L260F); assay: CHOK1 GLP-1R cAMP Assay; assay type: cell-based; conditions: CHO-K1 cell line stably expressing human GLP-1R (Leu260Phe variant); HTRF cAMP; agonist activity
# T2 construct: expressed in transfected cells; host or cells: CHO-K1 (ATCC CCL-61)
# Experimental: A cell line stably expressing the human GLP-1R receptor (NM_002062.5, including the naturally-occurring variant Leu260Phe) in a CHO-K1 (ATCC® CCL-61™) was used for assay.
# GLP-1 receptor mediated agonist activity was determined in a cell-based assay measuring cyclic adenosine monophosphate (cAMP) levels in cells using Homogeneous Time-Resolved Fluorescence (HTRF) cAMP detection kit (CisBio catalog #62AM4PEC, cAMP Gs Dynamic range kit). The cAMP detection method is based on a competitive immunoassay, in which cAMP produced by the cells and cAMP labeled with the dye d2 compete for binding to a Europium-Cryptate-labeled anti-cAMP antibody. The specific HTRF signal is inversely proportional to the concentration of cAMP.
# Compounds were added to individual well in 384 well-assay plates (Greiner #784076) using an Echo (LabCyte) dispenser from 10 mM stocks. Varying concentration of compounds were added to wells, and DMSO was used to normalize each well to a volume of 100 nL. A dose response curve of GLP-1(7-36)NH2 (Bachem H-6795) was included in each run. 5 μL of cAMP concentration response standards are applied in specified wells in the assay plates. Cryo-preserved cells are thawed and resuspended in assay buffer pre-heated to 37° C. (20 mM HEPES pH 7.4, 1× Hank's Balanced Salt Solution (HBSS, Life Technologies #14065) supplemented with 0.1% (w/v) bovine serum albumin (Sigma, A-7030). Cells were centrifuged at 250*g for 5 min at rt, and resuspended in room tempered assay buffer to a final density of 0.16*10^6 cell/mL, to deliver 800 cells/well. 5 μL of assay buffer with 1 mM 3-isobutyl-1-methylxanthin (IBMX; Sigma cat I-7018) was dispensed per well in assay plates using a multidrop combi (Thermo Scientific) subsequently 5 μL of cell suspension was distributed to relevant wells in the assay using a multidrop dispenser. Assay plates were incubated 20 min at rt.
# Detection reagents, Europium-Cryptate-labeled anti-cAMP antibody and cAMP labeled with the dye d2, are diluted in lysis buffer, provided by the manufacturer. 5 μL of each detection reagent is supplemented to each assay well using a multidrop dispenser. Assay plates are incubated in the dark for at least one h. The HTRF signal is measured using the HTRF module (excitation: 337 nm, emission A: 665 nm and emission B: 620 nm) in Pherastar FSX (BMG Labtech).
# Raw data were converted to pM cAMP using the cAMP standard curve included in each run.
# Converted data were further analyzed in Genedata Screener (Genedata) and EC50 determinations were made from agonist dose-response curves analyzed with a curve fitting program using a 4-parameter logistic dose response equation (Equation y=A+((B−A)/1+((C/x)^D))) where A is no stimulation, B is full stimulation, C is the EC50 and D is the Hill slope). The percent effect was determined relative to a saturating concentration of a full GLP-1R agonist (GLP-1(7-36)NH2 has 100% effect in this assay setup).
# T2 sequence (P43220 24-463 L260F): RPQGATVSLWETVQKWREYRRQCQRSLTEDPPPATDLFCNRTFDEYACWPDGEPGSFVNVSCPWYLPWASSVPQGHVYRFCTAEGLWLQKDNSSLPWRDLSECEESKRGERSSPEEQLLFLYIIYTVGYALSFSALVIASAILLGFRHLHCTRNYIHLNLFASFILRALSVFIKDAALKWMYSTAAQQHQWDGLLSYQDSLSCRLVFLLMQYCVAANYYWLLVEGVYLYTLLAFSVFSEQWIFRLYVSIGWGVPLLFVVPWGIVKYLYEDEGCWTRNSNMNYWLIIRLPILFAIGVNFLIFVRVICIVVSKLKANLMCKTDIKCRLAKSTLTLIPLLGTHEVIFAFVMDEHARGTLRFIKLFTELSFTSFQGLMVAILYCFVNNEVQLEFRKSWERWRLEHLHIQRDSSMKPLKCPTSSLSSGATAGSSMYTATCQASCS
# T1 sequence (P43220 24-463): as the sequence (P43220 24-463 L260F) above, with F237L counted along it
Molecule,EC50 (GLP-1R) [µM],EC50 (human GLP-1R receptor) [µM]
"2-(((1R,5S,6R)-6-((R*)-2-(5-Chloropyridin-2-yl)-5-fluoro-2-methylbenzo[d][1,3]dioxol-4-yl)-3-azabicyclo[3.1.0]hexan-3-yl)methyl)-4-fluoro-1-(((S)-oxetan-2-yl)methyl)-1H-benzo[d]imidazole-6-carboxylic acid [Example 10b]",1.9,0.68
"4-Chloro-2-(((1R,5S,6R)-6-((R*)-2-(5-chloropyridin-2-yl)-5-fluoro-2-methylbenzo[d][1,3]dioxol-4-yl)-3-azabicyclo[3.1.0]hexan-3-yl)methyl)-1-(((S)-oxetan-2-yl)methyl)-1H-benzo[d]imidazole-6-carboxylic acid [Example 8a]",0.28,0.15
"4-Chloro-2-(((1R,5S,6R)-6-((R*)-2-(5-chloropyridin-2-yl)-5-fluoro-2-methylbenzo[d][1,3]dioxol-4-yl)-3-azabicyclo[3.1.0]hexan-3-yl)methyl)-1-(((S)-oxetan-2-yl)methyl)-1H-benzo[d]imidazole-6-carboxylic acid [Example 8b]",0.0096,0.0082
"C[C@@]1(c2ccc(Cl)cn2)Oc2cccc([C@H]3[C@@H]4CN(Cc5nc6c(Cl)cc(C(=O)O)cc6n5CC5CCO5)C[C@@H]43)c2O1 (relative stereo) [Example 5, 4-Chloro-2-(((1R,5S,6R)-6-((R*)-2-(5-chloropyridin-2-yl)-2-methylbenzo[d][1,3]dioxol-4-yl)-3-azabicyclo[3.1.0]hexan-3-yl)methyl)-1-(((S)-oxetan-2-yl)methyl)-1H-benzo[d]imidazole-6-carboxylic acid]",0.016,0.024
"C[C@@]1(c2ccc(Cl)cn2)Oc2cccc([C@H]3[C@@H]4CN(Cc5nc6c(F)cc(C(=O)O)cc6n5C[C@@H]5CCO5)C[C@@H]43)c2O1 (relative stereo) [Example 9, 2-(((1R,5S,6R)-6-((R*)-2-(5-Chloropyridin-2-yl)-2-methylbenzo[d][1,3]dioxol-4-yl)-3-azabicyclo[3.1.0]hexan-3-yl)methyl)-4-fluoro-1-(((S)-oxetan-2-yl)methyl)-1H-benzo[d]imidazole-6-carboxylic acid]",0.058,0.04
"C[C@@]1(c2ccc(C#N)cc2F)Oc2cccc([C@H]3[C@@H]4CN(Cc5nc6c(F)cc(C(=O)O)cc6n5C[C@@H]5CCO5)C[C@@H]43)c2O1 (relative stereo) [Example 11, 2-((1R,5S,6R)-6-((R*)-2-(4-Cyano-2-fluorophenyl)-2-methylbenzo[d][1,3]dioxol-4-yl)-3-azabicyclo[3.1.0]hexan-3-yl)methyl)-4-fluoro-1-(((S)-oxetan-2-yl)methyl)-1H-benzo[d]imidazole-6-carboxylic acid]",0.057,0.061
"CCn1cncc1Cn1c(CN2C[C@@H]3[C@H](C2)[C@H]3c2cccc3c2O[C@](C)(c2ccc(Cl)cn2)O3)nc2c(OC)cc(C(=O)O)cc21 (relative stereo) [Example 13, 2-((1R,5S,6s)-6-(R*)-2-(5-Chloropyridin-2-yl)-2-methylbenzo[d][1,3]dioxol-4-yl)-3-azabicyclo[3.1.0]hexan-3-yl)methyl)-1-((1-ethyl-1H-imidazol-5-yl)methyl)-4-methoxy-1H-benzo[d]imidazole-6-carboxylic acid]",0.0041,0.0081
"CCn1cncc1Cn1c(CN2C[C@@H]3[C@H](C2)[C@H]3c2cccc3c2O[C@](C)(c2ccc(Cl)cn2)O3)nc2c(F)cc(C(=O)O)cc21 (relative stereo) [Example 14, 2-((1R,5S,6s)-6-(R*)-2-(5-Chloropyridin-2-yl)-2-methylbenzo[d][1,3]dioxol-4-yl)-3-azabicyclo[3.1.0]hexan-3-yl)methyl)-1-((1-ethyl-1H-imidazol-5-yl)methyl)-4-fluoro-1H-benzo[d]imidazole-6-carboxylic acid]",0.0059,0.026
"CCn1cncc1Cn1c(CN2C[C@@H]3[C@H](C2)[C@H]3c2cccc3c2O[C@](C)(c2ccc(Cl)cc2F)O3)nc2c(F)cc(C(=O)O)cc21 (relative stereo) [Example 15, 2-((1R,5S,6s)-6-((R*)-2-(4-Chloro-2-fluorophenyl)-2-methylbenzo[d][1,3]dioxol-4-yl)-3-azabicyclo[3.1.0]hexan-3-yl)methyl)-1-((1-ethyl-1H-imidazol-5-yl)methyl)-4-fluoro-1H-benzo[d]imidazole-6-carboxylic acid]",0.003,0.0086
"COc1cc(C(=O)O)cc2c1nc(CN1C[C@@H]3[C@H](C1)[C@H]3c1cccc3c1O[C@](C)(c1ccc(Cl)cn1)O3)n2CC1CCO1 (single isomer, unassigned) [Example 4a, 2-(((1R,5S,6R)-6-((R*)-2-(5-Chloropyridin-2-yl)-2-methylbenzo[d][1,3]dioxol-4-yl)-3-azabicyclo[3.1.0]hexan-3-yl)methyl)-4-methoxy-1-(((S)-oxetan-2-yl)methyl)-1H-benzo[d]imidazole-6-carboxylic acid]",0.35,0.28
"COc1cc(C(=O)O)cc2c1nc(CN1C[C@@H]3[C@H](C1)[C@H]3c1cccc3c1O[C@](C)(c1ccc(Cl)cn1)O3)n2CC1CCO1 (single isomer, unassigned) [Example 4b, 2-(((1R,5S6R)-6-((R*)-2-(5-Chloropyridin-2-yl)-2-methylbenzo[d][1,3]dioxol-4-yl)-3-azabicyclo[3.1.0]hexan-3-yl)methyl)-4-methoxy-1-(((S)-oxetan-2-yl)methyl)-1H-benzo[d]imidazole-6-carboxylic acid]",0.014,0.061

# Reference: patent US20250042882A1, “CERTAIN 3-AZABICYCLO[3.1.0]HEXANES AS GLP-1 RECEPTOR MODULATORS” (AstraZeneca AB, priority 2021, published 2025)
